Measurements from paper PMC7162861, “Synthesis, cytotoxicity, pharmacokinetic profile, binding with DNA and BSA of new imidazo[1,2-a]pyrazine-benzo[d]imidazol-5-yl hybrids” (Scientific Reports, 2020).

What was measured:
HCT-15 = assay: NCI cytotoxicity screen, Colon Cancer panel; format: cell-based; settings: Homo sapiens, single dose 10 µM, negative = lethal, read-out: Percent growth inhibition
Method: (§1) Cytotoxicity was performed at National Cancer Institute (NCI), Bethesda, USA as per their protocols.

COLO 205 = assay: NCI cytotoxicity screen, Colon Cancer panel; format: cell-based; settings: Homo sapiens, single dose 10 µM, negative = lethal, read-out: Percent growth inhibition
Method: as §1

HT29 = assay: NCI cytotoxicity screen, Colon Cancer panel; format: cell-based; settings: Homo sapiens, HT-29; HT29; single dose 10 µM; negative = lethal; read-out: Percent growth inhibition
Method: as §1

HCT-116 = assay: NCI cytotoxicity screen, Colon Cancer panel; format: cell-based; settings: Homo sapiens, single dose 10 µM, negative = lethal, read-out: Percent growth inhibition
Method: as §1

HCC-2998 = assay: NCI cytotoxicity screen, Colon Cancer panel; format: cell-based, human; settings: Homo sapiens; HCC-2998; single dose 10 µM; negative = lethal; read-out: Percent growth inhibition
Method: as §1

SR = assay: NCI cytotoxicity screen, Leukemia panel; format: cell-based; settings: Homo sapiens, single dose 10 µM, negative = lethal, read-out: Percent growth inhibition
Method: as §1

K-562 = assay: NCI cytotoxicity screen, Leukemia panel; format: cell-based; settings: Homo sapiens, K562; K-562; single dose 10 µM; negative = lethal; read-out: Percent growth inhibition
Method: as §1

CCRF-CEM = assay: NCI cytotoxicity screen, Leukemia panel; format: cell-based; settings: Homo sapiens, single dose 10 µM, negative = lethal, read-out: Percent growth inhibition
Method: as §1

RPMI-8226 = assay: NCI cytotoxicity screen, Leukemia panel; format: cell-based; settings: Homo sapiens; RPMI-8226; single dose 10 µM; negative = lethal; read-out: Percent growth inhibition
Method: as §1

HL-60(TB) = assay: NCI cytotoxicity screen, Leukemia panel; format: cell-based; settings: Homo sapiens, HL-60, HL-60(TB); single dose 10 µM; negative = lethal; read-out: Percent growth inhibition
Method: as §1

MOLT-4 = assay: NCI cytotoxicity screen, Leukemia panel; format: cell-based; settings: Homo sapiens, MOLT-4, MOLT-4; single dose 10 µM; negative = lethal; read-out: Percent growth inhibition
Method: as §1

SN12C = assay: NCI cytotoxicity screen, Renal Cancer panel; format: cell-based; settings: Homo sapiens, single dose 10 µM, negative = lethal, read-out: Percent growth inhibition
Method: as §1

A498 = assay: NCI cytotoxicity screen, Renal Cancer panel; format: cell-based; settings: Homo sapiens, single dose 10 µM, negative = lethal, read-out: Percent growth inhibition
Method: as §1

RXF 393 = assay: NCI cytotoxicity screen, Renal Cancer panel; format: cell-based; settings: Homo sapiens, single dose 10 µM, negative = lethal, read-out: Percent growth inhibition
Method: as §1

UO-31 = assay: NCI cytotoxicity screen, Renal Cancer panel; format: cell-based; settings: Homo sapiens, single dose 10 µM, negative = lethal, read-out: Percent growth inhibition
Method: as §1

ACHN = assay: NCI cytotoxicity screen, Renal Cancer panel; format: cell-based; settings: Homo sapiens, single dose 10 µM, negative = lethal, read-out: Percent growth inhibition
Method: as §1

NCI-H460 = assay: NCI cytotoxicity screen, Non-Small Cell Lung Cancer panel; format: cell-based; settings: Homo sapiens, single dose 10 µM, negative = lethal, read-out: Percent growth inhibition
Method: as §1

HOP-92 = assay: as above; format: cell-based; settings: Homo sapiens, single dose 10 µM, negative = lethal, read-out: Percent growth inhibition
Method: as §1

EXVX = assay: as above; format: cell-based; settings: Homo sapiens; EXVX; single dose 10 µM; negative = lethal; read-out: Percent growth inhibition
Method: as §1

HOP-62 = assay: as above; format: cell-based; settings: Homo sapiens, single dose 10 µM, negative = lethal, read-out: Percent growth inhibition
Method: as §1

A549/ATCC = assay: as above; format: cell-based; settings: Homo sapiens; A549/ATCC; single dose 10 µM; negative = lethal; read-out: Percent growth inhibition
Method: as §1

[1] = Experimental log P, shake-flask method; format: physicochemical; settings: n-octanol/phosphate buffer pH 7.4, read-out: Exp. Log P
Method: Partition coefficients or experimental log P values of all synthesized compounds (9–23, 30 and 31) were calculated using the shake-flask method. Log P values were determined using n-octanol and phosphate buffer (pH = 7.4) at 10:1 ratio of volumes. Stock solutions (10^−3 M) of compounds were prepared in DMSO. Glass vials were used to make final solutions i.e. stock solution (250 µL) and phosphate buffer (125 µL). To record the absorbance, wavelength was selected based on λmax of the respective compound. Initial absorbance (Ai) for every compound was noted consuming the stock solution in the buffer phase. Now added n-octanol to every vial and shaken well using a mechanical shaker for 50 minutes. To get separation of both phases, glass vials were centrifuged for 35 min. at 2500 rpm. Then, the layer of octanol was separated from glass vial. The final absorbance (Af) of each compound was recorded by using the buffer layer. The values of P for compounds were determined by the following equation (Eq. 8):8 P=Ai−Af/Af×Vw/Vo

T-47D = assay: NCI cytotoxicity screen, Breast Cancer panel; format: cell-based; settings: Homo sapiens, T47D, T-47D; single dose 10 µM; negative = lethal; read-out: Percent growth inhibition
Method: as §1

MDA-MB-468 = assay: NCI cytotoxicity screen, Breast Cancer panel; format: cell-based; settings: Homo sapiens, single dose 10 µM, negative = lethal, read-out: Percent growth inhibition
Method: as §1

BT-549 = assay: NCI cytotoxicity screen, Breast Cancer panel; format: cell-based; settings: Homo sapiens, single dose 10 µM, negative = lethal, read-out: Percent growth inhibition
Method: as §1

HS 578 T = assay: NCI cytotoxicity screen, Breast Cancer panel; format: cell-based; settings: Homo sapiens; HS 578T; single dose 10 µM; negative = lethal; read-out: Percent growth inhibition
Method: as §1

MCF7 = assay: NCI cytotoxicity screen, Breast Cancer panel; format: cell-based; settings: Homo sapiens, single dose 10 µM, negative = lethal, read-out: Percent growth inhibition
Method: as §1

MDA-MB-231/ATCC = assay: NCI cytotoxicity screen, Breast Cancer panel; format: cell-based; settings: Homo sapiens, MDA-MB-231, read-out: Percent growth inhibition
Method: as §1

OVCAR-5 = assay: NCI cytotoxicity screen, Ovarian Cancer panel; format: cell-based; settings: Homo sapiens, single dose 10 µM, negative = lethal, read-out: Percent growth inhibition
Method: as §1

OVCAR-4 = assay: NCI cytotoxicity screen, Ovarian Cancer panel; format: cell-based; settings: Homo sapiens; OVCAR-4; single dose 10 µM; negative = lethal; read-out: Percent growth inhibition
Method: as §1

SK-OV-3 = assay: NCI cytotoxicity screen, Ovarian Cancer panel; format: cell-based; settings: Homo sapiens, single dose 10 µM, negative = lethal, read-out: Percent growth inhibition
Method: as §1

OVCAR-8 = assay: NCI cytotoxicity screen, Ovarian Cancer panel; format: cell-based; settings: Homo sapiens, single dose 10 µM, negative = lethal, read-out: Percent growth inhibition
Method: as §1

NCI/ADR-RES = assay: NCI cytotoxicity screen, Ovarian Cancer panel; format: cell-based; settings: Homo sapiens, single dose 10 µM, negative = lethal, read-out: Percent growth inhibition
Method: as §1

IGROV1 = assay: NCI cytotoxicity screen, Ovarian Cancer panel; format: cell-based; settings: Homo sapiens, IGROV-1, single dose 10 µM, negative = lethal, read-out: Percent growth inhibition
Method: as §1

NCI-H226 = assay: NCI cytotoxicity screen, Non-Small Cell Lung Cancer panel; format: cell-based, human; settings: Homo sapiens, single dose 10 µM, negative = lethal, read-out: Percent growth inhibition
Method: as §1

NCI-522 = assay: as above; format: cell-based, human; settings: Homo sapiens; NCI-522; single dose 10 µM; negative = lethal; read-out: Percent growth inhibition
Method: as §1

NCI-H23 = assay: as above; format: cell-based, human; settings: Homo sapiens, single dose 10 µM, negative = lethal, read-out: Percent growth inhibition
Method: as §1

NCI-H322M = assay: as above; format: cell-based, human; settings: Homo sapiens, single dose 10 µM, negative = lethal, read-out: Percent growth inhibition
Method: as §1

OVCAR-3 = assay: NCI cytotoxicity screen, Ovarian Cancer panel; format: cell-based, human; settings: Homo sapiens; OVCAR-3; single dose 10 µM; negative = lethal; read-out: Percent growth inhibition
Method: as §1

DU-145 = assay: NCI cytotoxicity screen, Prostate Cancer panel; format: cell-based, human; settings: Homo sapiens, single dose 10 µM, negative = lethal, read-out: Percent growth inhibition
Method: as §1

PC-3 = assay: NCI cytotoxicity screen, Prostate Cancer panel; format: cell-based, human; settings: Homo sapiens, single dose 10 µM, negative = lethal, read-out: Percent growth inhibition
Method: as §1

CAKI-1 = assay: NCI cytotoxicity screen, Renal Cancer panel; format: cell-based; settings: Homo sapiens; CAKI-1; single dose 10 µM; negative = lethal; read-out: Percent growth inhibition
Method: as §1

With COc1ccc(-c2cn3ccnc3c(-c3ccc4c(c3)ncn4C3CCCCC3)n2)cc1 [Compound 10, 8-(1-cyclohexyl-1H-benzo[d]imidazol-5-yl)-6-(4-methoxyphenyl)imidazo[1,2-a]pyrazine] the inhibition at 10 µM (HCT-15) was 11.9%, the inhibition at 10 µM (COLO 205) was less than 1% and the inhibition at 10 µM (HT29) was less than 1%. It also gave an inhibition at 10 µM (HCT-116) of 18.6%, an inhibition at 10 µM (HCC-2998) of less than 1% and an inhibition at 10 µM (SR) of 29.7%. For the same compound, the inhibition at 10 µM (K-562) was 29.2%, the inhibition at 10 µM (CCRF-CEM) was 1.19% and the inhibition at 10 µM (RPMI-8226) was 14.7%. The inhibition at 10 µM (HL-60(TB)) was 23.3%, the inhibition at 10 µM (MOLT-4) was 34.2% and the inhibition at 10 µM (SN12C) was less than 1%. It also gave an inhibition at 10 µM (A498) of less than 1%, an inhibition at 10 µM (RXF 393) of less than 1% and an inhibition at 10 µM (UO-31) of 33.5%. It also gave an inhibition at 10 µM (ACHN) of 10.9%, an inhibition at 10 µM (NCI-H460) of 2.9% and an inhibition at 10 µM (HOP-92) of 17.4%. It also gave an inhibition at 10 µM (EXVX) of 7.85%, an inhibition at 10 µM (HOP-62) of 3.33% and an inhibition at 10 µM (A549/ATCC) of 7.33%. It also gave a logP [1] of 1.44, an inhibition at 10 µM (T-47D) of 46.2% and an inhibition at 10 µM (MDA-MB-468) of less than 1%. The inhibition at 10 µM (BT-549) was 8.55%, the inhibition at 10 µM (HS 578 T) was 5.69% and the inhibition at 10 µM (MCF7) was 19.7%. For the same compound, the inhibition at 10 µM (MDA-MB-231/ATCC) was less than 1%, the inhibition at 10 µM (OVCAR-5) was 1.45% and the inhibition at 10 µM (OVCAR-4) was 7.51%. It also gave an inhibition at 10 µM (SK-OV-3) of 5.37%, an inhibition at 10 µM (OVCAR-8) of 7.75% and an inhibition at 10 µM (NCI/ADR-RES) of 1.93%. It also gave an inhibition at 10 µM (IGROV1) of 5.82%, an inhibition at 10 µM (NCI-H226) of less than 1% and an inhibition at 10 µM (NCI-522) of 18.5%. The inhibition at 10 µM (NCI-H23) was less than 1%, the inhibition at 10 µM (NCI-H322M) was less than 1% and the melting point was 196 to 199 °C. It also gave an inhibition at 10 µM (OVCAR-3) of less than 1%, an inhibition at 10 µM (DU-145) of less than 1% and an inhibition at 10 µM (PC-3) of 22.6%.
Compound Fc1ccc(-c2cn3ccnc3c(-c3ccc4c(c3)ncn4C3CCCCC3)n2)cc1 [Compound 13, 8-(1-cyclohexyl-1H-benzo[d]imidazol-5-yl)-6-(4-fluorophenyl)imidazo[1,2-a]pyrazine] has an inhibition at 10 µM (HCT-15) of 4.85%, an inhibition at 10 µM (COLO 205) of less than 1% and an inhibition at 10 µM (HT29) of 8.33%. For the same compound, the inhibition at 10 µM (HCT-116) was 6.58%, the inhibition at 10 µM (HCC-2998) was less than 1% and the inhibition at 10 µM (SR) was 20.8%. The inhibition at 10 µM (K-562) was 13.2%, the inhibition at 10 µM (CCRF-CEM) was less than 1% and the inhibition at 10 µM (RPMI-8226) was 6.16%. For the same compound, the inhibition at 10 µM (HL-60(TB)) was 5.28%, the inhibition at 10 µM (MOLT-4) was 11.4% and the inhibition at 10 µM (CAKI-1) was less than 1%. It also gave an inhibition at 10 µM (SN12C) of less than 1%, an inhibition at 10 µM (RXF 393) of 36% and an inhibition at 10 µM (UO-31) of 22.8%. It also gave an inhibition at 10 µM (ACHN) of less than 1%, an inhibition at 10 µM (NCI-H460) of less than 1% and an inhibition at 10 µM (HOP-92) of 7.05%. The inhibition at 10 µM (EXVX) was less than 1%, the inhibition at 10 µM (HOP-62) was 13.2% and the inhibition at 10 µM (A549/ATCC) was 8.95%. For the same compound, the logP [1] was 1.26, the inhibition at 10 µM (T-47D) was 10.1% and the inhibition at 10 µM (MDA-MB-468) was less than 1%. It also gave an inhibition at 10 µM (BT-549) of less than 1%, an inhibition at 10 µM (HS 578 T) of less than 1% and an inhibition at 10 µM (MCF7) of 9.59%. It also gave an inhibition at 10 µM (MDA-MB-231/ATCC) of less than 1%, an inhibition at 10 µM (OVCAR-5) of less than 1% and an inhibition at 10 µM (OVCAR-4) of less than 1%. The inhibition at 10 µM (SK-OV-3) was less than 1%, the inhibition at 10 µM (OVCAR-8) was 3.09% and the inhibition at 10 µM (NCI/ADR-RES) was 2.36%. For the same compound, the inhibition at 10 µM (IGROV1) was 6.4%, the inhibition at 10 µM (NCI-H226) was 7.09% and the inhibition at 10 µM (NCI-522) was 22.6%. For the same compound, the inhibition at 10 µM (NCI-H23) was 4.49%, the inhibition at 10 µM (NCI-H322M) was less than 1% and the melting point was 187 to 189 °C. The inhibition at 10 µM (OVCAR-3) was less than 1%, the inhibition at 10 µM (DU-145) was less than 1% and the inhibition at 10 µM (PC-3) was 10.2%.
